In patent publication US9248115B2, “Silibinin component for the treatment of hepatitis” (MADAUS GmbH, priority 2007, dated 2016):
Like-named read-outs stand apart in the source and are kept apart here.

Assays:
[1] = biological target: T1, HCV NS5BΔ21 polymerase genotype J4 (1b) (Hepatitis C virus genotype 1b, UniProt O92972); test: Cell-free enzyme assay for HCV RdRp activity; type: biochemical
T1 construct: HCV NS5BΔ21 polymerase genotype J4 (1b)
Experimental: NS5B RNA-dependent RNA polymerase (RdRp) is an essential enzyme fir viral replication (cf. S. B. Hwang et al., Virology 1997, 227, 439-46). The following pure compounds were tested in a cell-free enzyme assay for the detection of HCV RdRp activity: silibinin A, silibinin B, isosilibinin A, isosilibinin B, silichristin, silidianin, and the silibinin ester silibinin-C-2″,3-bis(hydrogensuccinate) disodium (active ingredient of Legalon® SIL).
Stock solutions (100 mM) of the compounds in 100% DMSO were prepared. The concentration of DMSO in all reactions was kept constant at 5%. Target enzyme for the study was HCV NS5BΔ21 polymerase genotype J4 (1b).
The IC50 value of the silibinin ester was determined from the dose-response curve of two measurements. […] Curves were fitted to data points and IC50 values were interpolated from the resulting curves using SigmaPlot 8.0 software.

hepatitis C virus [2] = test: Example 2: iv silibinin co-treatment during ongoing peginterferon/ribavirin, HCV-RNA; type: in vivo, human
Experimental: Patients were continuously treated with 180 μg peginterferon alfa 2a and weight based ribavirin. In spite of this treatment, five patients were HCV-RNA positive after 24 weeks of therapy: Three male patients and two female patients; four patients with HCV genotype 1 and one patient with HCV genotype 3a; three patients with cirrhosis. Four patients can be regarded as naïve, whereas one patient can be regarded as […] respect to two previous therapies (24 and 48 weeks). In the course of the ongoing treatment with 180 μg peginterferon alfa 2a and weight based ribavirin, all patients were treated at least once for 14 consecutive days with 20 mg/kg/d silibinin iv. During this period, combination therapy with peginterferon/ribavirin was continued.

hepatitis C virus [3] = test: Protocol 1: serum HCV RNA (TaqMan PCR) in peginterferon/ribavirin nonresponders, iv silibinin for 7 days; type: in vivo, human; conditions: monotherapy
Experimental: Patients with previous nonresponse to full dose of peginterferon/ribavirin combination therapy were selected for these studies. […] Patients were required to have a liver biopsy done within 2 years prior inclusion into this study. Standard inclusion/exclusion criteria for peginterferon/ribavirin therapy were applied. Patients first received daily 10 mg/kg silibinin (Legalon Sil®, Madaus, Köln) infused over 4 hrs for 7 consecutive days. On day 1 blood was drawn for determination of oxidative stress parameters at baseline, every 30 minutes during the infusion and 2 hours after the end of the infusion. On day 8 treatment was changed to 140 mg silymarin (Legalon®, Madaus, Köln) TID per os in combination with 180 μ[…]®; Roche, Basel) and 1-1.2 g/d ribavirin (COPEGUS®; Roche, Basel). In both protocols in case of intolerance to PEG-IFN alfa2a or ribavirin, standard dose adjustment guidelines were used. Antiviral combination therapy was given for a total of 24 weeks (with the Option to stop treatment in patients without a >2 log drop at week 12); virologic responders at week 24 were offered to continue treatment for further 48 weeks. After end of the infusion period patients were tested after weeks 2, 4, and then monthly till the end of therapy at week 24. Serum HCV RNA level was determined by the TaqMan PCR assay (Cobas […] TaqMan HCV Test; limit of detection, 15 IU/mL, Roche Diagnostics).

[4] = Serum ALT during iv silibinin monotherapy (Protocol 1); type: in vivo, human; conditions: 10 mg/kg/day iv for 7 days; decreased from 162±133; p=0.004
Experimental: Patients first received daily 10 mg/kg silibinin (Legalon Sil®, Madaus, Köln) infused over 4 hrs for 7 consecutive days. On day 1 blood was drawn for determination of oxidative stress parameters at baseline, every 30 minutes during the infusion and 2 hours after the end of the infusion. On day 8 treatment was changed to 140 mg silymarin (Legalon®, Madaus, Köln) TID per os in combination with 180 μ[…]®; Roche, Basel) and 1-1.2 g/d ribavirin (COPEGUS®; Roche, Basel).

mouse cell line L929 = type: cell-based
Experimental: An in vitro study was performed to assess the cytotoxic potential of silymarin, silibinin, silibinin bis(hydrogensuccinate) disodium salt, and succinic acid by means of the XTT test using the mouse cell line L929 (cf. D. A. Scudiero et al., Cancer Res. 48, 4827-33; O, S. Weislow et al., J. Natl. Cancer Inst., 81, 577-86; N. W. Roehm et al., J. Immunol. Methods, 142). The following concentrations of the test items were tested: 9.77, 19.53, 39.06, 78.13, 156.25, 312.5, 625, 1250 μg/mL. Complete medium (RPMI 1640 containing 10% (v/v) FCS) was used as negative control. The solvent control for the test item was RPMI 1640 medium containing 10% (v/v) FCS) and 1% DMSO. The solvent control for the positive control was also RPMI 1640 medium containing 10% (v/v) FCS and 10.0% (v/v) deionized water. SDS was used as positive control. The following concentrations were applied: 3.125, 6.25, 12.5, 25, 50, 100, 125, 250 μg/mL. The incubation time was 24 hours at 37±1.5° C.

[5] = Example 3: plasma pharmacokinetics of free and total silibinin A and B after Legalon SIL infusion (HPLC-UV); type: in vivo, human; conditions: for AUC(0-∞), free silibinin: 20 mg/kg iv Legalon SIL, 8 hepatitis C patients; for AUC(0-∞), free silibinin / MRT / Tmax / clearance / Vd / half-life: plasma; for MRT / Tmax / clearance / Vd / half-life: human, intravenous, 20 mg/kg; for clearance: read-out: CL, free silibinin (converted); for Vd: read-out: Vz, free silibinin; for half-life: read-out: t1/2, free silibinin (converted)
Experimental: An in vivo study was performed to characterize plasma concentration/time profiles of silibinin in 8 patients suffering from chronic hepatitis C who received 7 days i.v. infusion treatment with 20 mg silibinin/kg body weight (Legalon® SIL). For multiple doses of 20 mg/kg body weight, plasma concentration/time profiles and PK parameters of free and total silibinin had been observed on day 1 (=single dose conditions) and were compared with those on day 7 (=expected steady state conditions).
The study samples were analyzed using a validated HPLC-UV method. During the assay period the analytical procedure was validated by two calibration curves per analytical run.

T1 sequence (O92972 2420-2989, stated change not applied): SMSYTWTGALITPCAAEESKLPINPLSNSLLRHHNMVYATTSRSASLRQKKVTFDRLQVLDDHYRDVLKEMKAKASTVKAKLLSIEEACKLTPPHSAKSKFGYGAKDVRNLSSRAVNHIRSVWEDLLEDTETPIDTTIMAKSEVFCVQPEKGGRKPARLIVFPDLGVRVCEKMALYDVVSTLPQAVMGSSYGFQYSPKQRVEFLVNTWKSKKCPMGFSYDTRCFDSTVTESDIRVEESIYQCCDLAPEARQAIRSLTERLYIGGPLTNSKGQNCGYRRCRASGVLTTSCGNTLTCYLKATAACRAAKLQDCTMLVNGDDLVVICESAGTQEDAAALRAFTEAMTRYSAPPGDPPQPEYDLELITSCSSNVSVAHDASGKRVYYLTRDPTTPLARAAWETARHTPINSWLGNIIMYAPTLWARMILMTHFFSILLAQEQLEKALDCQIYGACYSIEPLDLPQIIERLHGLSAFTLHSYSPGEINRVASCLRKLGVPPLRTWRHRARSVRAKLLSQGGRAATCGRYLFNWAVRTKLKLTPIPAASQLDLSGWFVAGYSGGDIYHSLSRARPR

Row | AUC(0-tz), free silibinin ([5]; day 1) [ng·h/mL] | Cmax, free silibinin ([5]; day 1) [ng/mL] | HVD, free silibinin ([5]; day 1) [h] | AUC(0-∞), free silibinin ([5]; day 1) [ng·h/mL] | % PTF, free silibinin ([5]; day 7) [%] | AUCss, free silibinin ([5]; day 7) [ng·h/mL] | Cav, free silibinin ([5]; day 7) [ng/mL] | Cmax, free silibinin ([5]; day 7) [ng/mL] | HVD, free silibinin ([5]; day 7) [h] | MRT ([5]; day 1) [h] | Tmax ([5]; day 1) [h] | clearance ([5]; day 1) [mL/min/kg] | Vd ([5]; day 1) [L/kg] | half-life ([5]; day 1) [h] | MRT ([5]; day 7) [h] | clearance ([5]; day 7) [mL/min/kg] | Vd ([5]; day 7) [L/kg] | half-life ([5]; day 7) [h] | Compound | also measured
1 | – | – | – | – | – | – | – | – | – | – | – | – | – | – | – | – | – | – | COc1cc(C2Oc3cc(C4Oc5cc(O)cc(O)c5C(=O)C4OC(=O)CCC(=O)O)ccc3OC2COC(=O)CCC(=O)O)ccc1O (stereo not drawn) [silibinin C-2′,3-bis(hydrogensuccinate)] | IC50 [1]: 47 ± 14 µM; NS5B inhibition compared with six purified constituents of silymarin ([1]; FIG. 11 vs FIG. 12): most efficient; viral load after second co-treatment, FIG. 7 patient (hepatitis C virus [2]; 20 mg/kg/day iv 14 days, permanently depressed): below the detection limit; viral load rebound after the first administration interval, FIG. 7 patient (hepatitis C virus [2]; person): about 2 IU/mL; viral load after co-treatment, FIG. 8 patient (hepatitis C virus [2]; person, 20 mg/kg/day iv 14 days after 30 weeks, from about log 4 IU/mL, permanent): below the detection limit; viral load after co-treatment, FIG. 9 patient (hepatitis C virus [2]; person, 20 mg/kg/day iv 14 days after 72 weeks): far below the detection limit; viral load after first co-treatment, FIG. 7 patient (hepatitis C virus [2]; person, 20 mg/kg/day iv 14 days from week 24, from about log 4.5 IU/mL): below the detection limit; mean log decline of HCV RNA within one week (hepatitis C virus [3]; 10 mg/kg/day iv for 7 days): 1.32±0.55 log; Serum HCV RNA at day 8 (mean±SD) (hepatitis C virus [3]; 10 mg/kg/day iv over 4 h for 7 days, baseline 6.59±0.53, 16 nonresponders, p<0.001): 5.26±0.81 log IU/ml; ALT after iv monotherapy [4]: 118±107 U/1
2 | – | – | – | – | – | – | – | – | – | – | – | – | – | – | – | – | – | – | silymarin | calculated XTT50 value (mouse cell line L929): 35.2 µg/mL; cytotoxic potential higher than that of silibinin (mouse cell line L929): ~100%
3 | 3302 ± 1551 | 316 ± 108 | 10.12 ± 4.29 | 3614 ± 1648 | 164.00 ± 45.33 | 4095 ± 1942 | 171 ± 81 | 315 ± 119 | 11.87 ± 2.64 | 8.49 ± 2.64 | 3.73 ± 1.22 | 117 | 51.4 ± 12.7 | 4.58 ± 1.35 | 9.88 ± 1.86 | 98.3 | 55.3 ± 18.5 | 6.85 ± 1.29 | COc1cc([C@H]2Oc3cc([C@H]4Oc5cc(O)cc(O)c5C(=O)[C@@H]4O)ccc3O[C@@H]2CO)ccc1O [Silibinin A] | –
4 | 559 ± 339 | 90 ± 44 | 6.09 ± 2.14 | 753 ± 397 | 305.24 ± 80.46 | 1041 ± 627 | 43 ± 26 | 120 ± 54 | 7.17 ± 1.63 | 8.81 ± 6.12 | 4.03 ± 0.04 | 747 | 286 ± 164 | 5.16 ± 4.96 | 6.27 ± 2.39 | 447 | 140 ± 49 | 4.35 ± 1.66 | COc1cc([C@@H]2Oc3cc([C@H]4Oc5cc(O)cc(O)c5C(=O)[C@@H]4O)ccc3O[C@H]2CO)ccc1O [Silibinin B] | –
